In patent US11840517B2, “Lappaconitine derivative with analgesic activity, and preparation and application thereof” (priority 2021, dated 2023):
Read-outs that look alike come from different tables or passages of the source.

What was measured:
Kunming mice [1] = assay: Analgesic activity by acetic acid-induced writhing method; type: in vivo; details: for inhibition in vivo at 10 mg/kg: Mus musculus, sc, read-out: Analgesia rate ± SEM (%); for analgesic activity (in words, Table 1): comment on Table 1
Experimental: The experimental animals were Kunming mice (male:female=1:1), weighed 22±2 g, which were provided by Chengdu dossy experimental animals Co., ltd., China. The mice were kept in the animal room of the School of Life Science and Engineering, Southwest Jiaotong University, where the animal room was set at a temperature of 23±2° C., a humidity of 55±5% and a photoperiod of 16:8 h (L:D). Before the experiment, the mice were freely fed for 2-3 days with water and feed to adapt to the new environment. Then, the mice were treated by water fasting for 12 h. 10 animals were allocated to each group to ensure that there are at least 6 sets of valid data in each group. The animal experiments were carried out in strict accordance with the national regulations on the management of experimental animals.
The compounds prepared in the examples provided herein and the positive control lappaconitine were all dissolved with 0.1 mol/L HCl according to the amount of the substance ratio of 1:1, and then diluted with physiological saline to a concentration to be determined. The samples to be tested were the compounds prepared the examples provided herein; the positive control was lappaconitine; and the blank control was physiological saline containing 0.1 mol/L HCl.
The animals in the control groups were subjected to the same treatment as those in the experimental group except that the samples to be test were replaced with physiological saline.
(§1) 10 mice were randomly selected, male:female=1:1, were placed in independent cages. Each mouse was injected subcutaneously with the sample solution mentioned above at a dose of 0.1 mL/10 g body weight. After 15 min, a 0.7% acetic acid solution was intraperitoneally injected. The number of writhing reactions in each mouse within 15 minutes was recorded. The group that the mice were injected with physiological saline subcutaneously was the blank group; the group that the mice were injected with the sample to be tested was the experimental group; and the group that the mice were injected with lappaconitine was the positive group. The analgesic activity was represented by a percentage of the reduced number of writhing compared to the blank group (writhing inhibition rate), which were specifically as follows: writhing inhibition rate (analgesic activity)=(average number of writhing times in the blank group-average number of writhing times in the experimental group)/average number of writhing times in the blank group×100%.

Kunming mice [2] = assay: Median effective dose (ED50) determination, acetic acid-induced writhing; type: in vivo; details: for ED50: subcutaneous, writhing inhibition, Probit regression; for analgesic activity / ED50 compared with lappaconitine (in words): comment on Table 2
Experimental: as §1
The sample to be tested was dissolved with 0.1 mol/L HCl according to the amount of the substance ratio of 1:1, and diluted with physiological saline according to the proportional series to obtain at least 5 groups with different dose concentrations. The writhing inhibition rate of each dose group was tested according to the acetic acid-induced writhing method mentioned above. The obtained does-writhing inhibition data was entered into the statistical product and service solutions (SPSS) software (version 17.2), and the ED50 of the sample to be tested was calculated through the Probit regression method.

[3] = Median lethal dose (LD50) determination; type: in vivo, Kunming mice; details: both sexes, Kunming, mouse, in vivo, sc; subcutaneous, survival within 24 h, Probit regression
Experimental: (§2) The sample to be tested was dissolved with 0.1 mol/L HCl according to the amount of the substance ratio of 1:1, and diluted with physiological saline according to the required concentration. 10 mice in each group were randomly selected, half of which are male and half of which were female, and were placed in independent cages. Each mouse was injected subcutaneously with different sample solutions to be tested according to a dose of 0.1 mL/10 g body weight. In the preliminary toxicity experiment, the measured concentration was 100 mg/kg, and then based on the survival rate of the experimental animals in the preliminary experiment, the sample to be tested was set to at least 5 groups with different concentration dose according to the proportional series. The survival rate of mice within 24 h was recorded. The obtained dose-survival rate data was input into the SPSS software (version 17.2), and the LD50 of the sample was calculated according to the Probit regression method.

Kunming mice [4] = assay: Median lethal dose (LD50) determination; type: in vivo
Experimental: as §2

[5] = Mus musculus, sc, read-out: ED50
[6] = Dosing concentration 10 mg/kg, subcutaneous, 15 min before i.p. 0.7% acetic acid, writhing inhibition vs blank group

In the case of CCN(CC)c1ccc(C(=O)Nc2ccccc2C(=O)O[C@@]23CC[C@H](OC)C45C2CC([C@H]4N(CC)C3)[C@@]2(O)C[C@H](OC)[C@H]3CC5[C@]2(O)[C@H]3OC)cc1 (some centres unmarked) [Compound 30], the inhibition in vivo at 10 mg/kg (Kunming mice [1]) is reported as 63.9 ± 5.09%, the “analgesic activity (in words, Table 1)” value (Kunming mice [1]) is reported as “significant activity” and the ED50 (Kunming mice [2]; [5]) is reported as 7.5 mg/kg. The “analgesic activity / ED50 compared with lappaconitine (in words)” value (Kunming mice [2]) was “same order of magnitude as that of lappaconitine” and the LD50 [3] was 276 mg/kg.

For CCN1C[C@]2(OC(=O)c3ccccc3NS(=O)(=O)c3ccccn3)CC[C@H](OC)C34C2CC([C@@H]13)[C@@]1(O)C[C@H](OC)[C@H]2CC4[C@]1(O)[C@H]2OC (some centres unmarked) [Compound 3], the inhibition in vivo at 10 mg/kg (Kunming mice [1]) was 71.2 ± 2.72%, the “analgesic activity (in words, Table 1)” value (Kunming mice [1]) was “significant activity” and the ED50 (Kunming mice [2]; [5]) was 4.7 mg/kg. The “analgesic activity / ED50 compared with lappaconitine (in words)” value (Kunming mice [2]) was “same order of magnitude as that of lappaconitine” and the LD50 [3] was over 400 mg/kg.

For CCN1C[C@]2(OC(=O)c3ccccc3NC(=O)c3ccc(N(C)C)cc3)CC[C@H](OC)C34C2CC([C@@H]13)[C@@]1(O)C[C@H](OC)[C@H]2CC4[C@]1(O)[C@H]2OC (some centres unmarked) [Compound 5], the inhibition in vivo at 10 mg/kg (Kunming mice [1]) was 62.1 ± 5.02%, the “analgesic activity (in words, Table 1)” value (Kunming mice [1]) was “significant activity” and the ED50 (Kunming mice [2]; [5]) was 6.1 mg/kg. The “analgesic activity / ED50 compared with lappaconitine (in words)” value (Kunming mice [2]) was “same order of magnitude as that of lappaconitine” and the LD50 [3] was 300 mg/kg.

For CCN1C[C@]2(OC(=O)c3ccccc3NC(=O)OC)CC[C@H](OC)C34C2CC([C@@H]13)[C@@]1(O)C[C@H](OC)[C@H]2CC4[C@]1(O)[C@H]2OC (some centres unmarked) [Compound 4], the inhibition in vivo at 10 mg/kg (Kunming mice [1]) was 71.1 ± 5.97%, the “analgesic activity (in words, Table 1)” value (Kunming mice [1]) was “significant activity” and the ED50 (Kunming mice [2]; [5]) was 1.2 mg/kg. The “analgesic activity / ED50 compared with lappaconitine (in words)” value (Kunming mice [2]) was “doubled compared with lappaconitine”, the LD50 [3] was 10 mg/kg and the “toxicity compared with lappaconitine (in words)” value (Kunming mice [4]; comment on Table 2) was “did not increase significantly”.

In the case of CCN1C[C@]2(OC(=O)c3ccccc3NS(=O)(=O)c3ccccc3OC)CC[C@H](OC)C34C2CC([C@@H]13)[C@@]1(O)C[C@H](OC)[C@H]2CC4[C@]1(O)[C@H]2OC (some centres unmarked) [Compound 2], the inhibition in vivo at 10 mg/kg (Kunming mice [1]) is reported as 71.2 ± 3.8%, the “analgesic activity (in words, Table 1)” value (Kunming mice [1]) is reported as “significant activity” and the ED50 (Kunming mice [2]; [5]) is reported as 5.5 mg/kg. For the same compound, the “analgesic activity / ED50 compared with lappaconitine (in words)” value (Kunming mice [2]) was “same order of magnitude as that of lappaconitine” and the LD50 [3] was 300 mg/kg.

In the case of CCN1C[C@]2(OC(=O)c3ccccc3NS(=O)(=O)c3ccccc3)CC[C@H](OC)C34C2CC([C@@H]13)[C@@]1(O)C[C@H](OC)[C@H]2CC4[C@]1(O)[C@H]2OC (some centres unmarked) [Compound 1], the inhibition in vivo at 10 mg/kg (Kunming mice [1]) is reported as 84.3 ± 3.05%, the “analgesic activity (in words, Table 1)” value (Kunming mice [1]) is reported as “significant activity” and the ED50 (Kunming mice [2]; [5]) is reported as 6.1 mg/kg. For the same compound, the “analgesic activity / ED50 compared with lappaconitine (in words)” value (Kunming mice [2]) was “same order of magnitude as that of lappaconitine” and the LD50 [3] was over 600 mg/kg.

In the case of CCN1C[C@]2(OC(=O)c3ccccc3NC(C)=O)CC[C@H](OC)[C@@]34[C@@H]2C[C@@H]([C@@H]13)[C@@]1(O)C[C@H](OC)[C@H]2C[C@@H]4[C@]1(O)[C@H]2OC [Lappaconitine], the “Analgesia rate ± SEM (%)” value (Kunming mice [1]; Dosing concentration 3.5 mg/kg, subcutaneous, 15 min before i.p. 0.7% acetic acid, writhing inhibition vs blank group) is reported as 56.57 ± 6.57 %, the “experimental animal death from poisoning” value (Kunming mice [1]; dosing concentration of 10 mg/kg) is reported as “more than half of the experimental animal death from poisoning” and the ED50 (Kunming mice [2]) is reported as 3.5 mg/kg. The LD50 (Kunming mice [4]; subcutaneous, survival within 24 h, Probit regression) was 11.7 mg/kg.

For CCN1C[C@]2(OC(=O)c3ccccc3NC(=O)c3ccc(OC)cc3)CC[C@H](OC)C34C2CC([C@@H]13)[C@@]1(O)C[C@H](OC)[C@H]2CC4[C@]1(O)[C@H]2OC (some centres unmarked) [Compound 32], the inhibition in vivo at 10 mg/kg (Kunming mice [1]) was 62.8 ± 5.77%, the “analgesic activity (in words, Table 1)” value (Kunming mice [1]) was “significant activity” and the ED50 (Kunming mice [2]; [5]) was 4.4 mg/kg. For the same compound, the “analgesic activity / ED50 compared with lappaconitine (in words)” value (Kunming mice [2]) was “same order of magnitude as that of lappaconitine” and the LD50 [3] was 296 mg/kg.

In the case of CCOc1ccc(C(=O)Nc2ccccc2C(=O)O[C@@]23CC[C@H](OC)C45C2CC([C@H]4N(CC)C3)[C@@]2(O)C[C@H](OC)[C@H]3CC5[C@]2(O)[C@H]3OC)cc1 (some centres unmarked) [Compound 31], the inhibition in vivo at 10 mg/kg (Kunming mice [1]) is reported as 62.8 ± 5.41%, the “analgesic activity (in words, Table 1)” value (Kunming mice [1]) is reported as “significant activity” and the ED50 (Kunming mice [2]; [5]) is reported as 6.6 mg/kg. The “analgesic activity / ED50 compared with lappaconitine (in words)” value (Kunming mice [2]) was “same order of magnitude as that of lappaconitine” and the LD50 [3] was 315 mg/kg.

In the case of CCN1C[C@]2(OC(=O)c3ccccc3NC(=O)c3ccc(OC(C)C)cc3)CC[C@H](OC)[C@]34C1[C@H](CC23)[C@@]1(O)C[C@H](OC)[C@H]2CC4[C@]1(O)[C@H]2OC (some centres unmarked) [Compound 59], the inhibition in vivo at 10 mg/kg (Kunming mice [1]) is reported as 61.1 ± 5.52%, the “analgesic activity (in words, Table 1)” value (Kunming mice [1]) is reported as “significant activity” and the ED50 (Kunming mice [2]; [5]) is reported as 8.1 mg/kg. For the same compound, the “analgesic activity / ED50 compared with lappaconitine (in words)” value (Kunming mice [2]) was “same order of magnitude as that of lappaconitine” and the LD50 [3] was 196 mg/kg.

CCN1C[C@]2(OC(=O)c3ccccc3NC(=O)NC)CC[C@H](OC)[C@@]34C2CC([C@@H]13)[C@@]1(O)C[C@H](OC)[C@H]2CC4[C@]1(O)[C@H]2OC (some centres unmarked) [Compound 18] gave an inhibition in vivo at 10 mg/kg (Kunming mice [1]; [6]) of 20 ± 6.67%.

For CCN1C[C@]2(OC(=O)c3ccccc3NC(=O)c3cnc(Cl)cn3)CC[C@H](OC)C3C2C[C@@H]([C@@H]1C)[C@@]1(O)CC(OC)[C@H]2CC3[C@]1(O)[C@H]2OC (some centres unmarked) [Compound 41], the inhibition in vivo at 10 mg/kg (Kunming mice [1]; [6]) was 31.5 ± 8.19%.

In the case of CCN1C[C@]2(OC(=O)c3ccccc3NC(=O)C3CCOCC3)CC[C@H](OC)C3C2C[C@@H]([C@@H]1C)[C@@]1(O)CC(OC)[C@H]2CC3[C@]1(O)[C@H]2OC (some centres unmarked) [Compound 50], the inhibition in vivo at 10 mg/kg (Kunming mice [1]; [6]) is reported as 16.4 ± 8.07%.

CCCC(C)C(=O)Nc1ccccc1C(=O)O[C@@]12CC[C@H](OC)C3C1C[C@@H]([C@H](C)N(CC)C2)[C@@]1(O)CC(OC)[C@H]2CC3[C@]1(O)[C@H]2OC (some centres unmarked) [Compound 42] showed an inhibition in vivo at 10 mg/kg (Kunming mice [1]; [6]) of 31.3 ± 10.7%.

CCN1C[C@]2(OC(=O)c3ccccc3NS(=O)(=O)c3cccc(F)c3)CC[C@H](OC)[C@@]34C2CC([C@@H]13)[C@@]1(O)C[C@H](OC)[C@H]2CC4[C@]1(O)[C@H]2OC (some centres unmarked) [Compound 7] gave an inhibition in vivo at 10 mg/kg (Kunming mice [1]; [6]) of 50.2 ± 6.85%.

With CCN1C[C@]2(OC(=O)c3ccccc3NS(=O)(=O)c3ccc(C(F)(F)F)cc3)CC[C@H](OC)[C@@]34C2CC([C@@H]13)[C@@]1(O)C[C@H](OC)[C@H]2CC4[C@]1(O)[C@H]2OC (some centres unmarked) [Compound 19] the inhibition in vivo at 10 mg/kg (Kunming mice [1]; [6]) was 19.4 ± 5%.
